In patent US20180360810A1, “NUPHARIDINE COMPOUNDS AND DERIVATIVES THEREOF FOR THE TREATMENT OF CYSTEINE PROTEASE RELATED DISEASES” (B. G. NEGEV TECHNOLOGIES AND APPLICATIONS LTD., AT …, priority 2015, published 2018):

What was measured:
Format in all cases: biochemical
Human rCathepsin D = biological target: T1, Human rCathepsin D (Homo sapiens, UniProt P07339); assay: Cathepsin D fluorometric inhibition assay; details: substrate ES001; pH 3.5; molarity calculated on assumed molecular weight of 526 daltons; read-out: IC50 (Nanomolar)
T1 construct: purchased
Protocol: (§1) Inhibition assays were performed in triplicates using 96 well plates transparent for Calpain, Trypsin, Papain, Cathepsin L and Cathepsin B (167008; Nunc, Roskilde, Denmark), or black for Cathepsin S, Cathepsin D and Insulyzin (ide) (Greiner 96 Polystyrol GRE96fb) according to manufacturers' instructions. Briefly, reaction mixture of 100 μl contained: 45 μl of enzyme in assay buffer, 5 μl of inhibitors diluted in DMSO. 50 μl substrate prepared in assay buffer according to manufacturers' instructions. The inhibitor was serially diluted in DMSO to concentrations from 0.0075 μg/μL to 0.0000075 μg/μL. 5 μl DMSO was added to control sample. Cathepsin substrate mix was added last just before starting the fluorometric measurement. Data was collected for 1.5 h at 60 sec intervals. Molarity of inhibitors were calculated based on assumed molecular weight of 526 daltons as a reference value for comparative evaluations.

Human Cathepsin L = biological target: T2, Human Cathepsin L (Homo sapiens, UniProt P07711); assay: Cathepsin L fluorometric inhibition assay; details: substrate Ac-FR-AFC; CTSL Assay Buffer; molarity calculated on assumed molecular weight of 526 daltons; read-out: IC50 (Nanomolar)
T2 construct: purchased
Protocol: as §1

Human Insulyzin (ide) = biological target: T3, Human Insulyzin (ide) (Homo sapiens, UniProt P14735); assay: Insulyzin (ide) fluorometric inhibition assay; details: substrate ES005; pH 7.5; molarity calculated on assumed molecular weight of 526 daltons; read-out: IC50 (Nanomolar)
T3 construct: purchased
T3 sequence (P14735 1-1019): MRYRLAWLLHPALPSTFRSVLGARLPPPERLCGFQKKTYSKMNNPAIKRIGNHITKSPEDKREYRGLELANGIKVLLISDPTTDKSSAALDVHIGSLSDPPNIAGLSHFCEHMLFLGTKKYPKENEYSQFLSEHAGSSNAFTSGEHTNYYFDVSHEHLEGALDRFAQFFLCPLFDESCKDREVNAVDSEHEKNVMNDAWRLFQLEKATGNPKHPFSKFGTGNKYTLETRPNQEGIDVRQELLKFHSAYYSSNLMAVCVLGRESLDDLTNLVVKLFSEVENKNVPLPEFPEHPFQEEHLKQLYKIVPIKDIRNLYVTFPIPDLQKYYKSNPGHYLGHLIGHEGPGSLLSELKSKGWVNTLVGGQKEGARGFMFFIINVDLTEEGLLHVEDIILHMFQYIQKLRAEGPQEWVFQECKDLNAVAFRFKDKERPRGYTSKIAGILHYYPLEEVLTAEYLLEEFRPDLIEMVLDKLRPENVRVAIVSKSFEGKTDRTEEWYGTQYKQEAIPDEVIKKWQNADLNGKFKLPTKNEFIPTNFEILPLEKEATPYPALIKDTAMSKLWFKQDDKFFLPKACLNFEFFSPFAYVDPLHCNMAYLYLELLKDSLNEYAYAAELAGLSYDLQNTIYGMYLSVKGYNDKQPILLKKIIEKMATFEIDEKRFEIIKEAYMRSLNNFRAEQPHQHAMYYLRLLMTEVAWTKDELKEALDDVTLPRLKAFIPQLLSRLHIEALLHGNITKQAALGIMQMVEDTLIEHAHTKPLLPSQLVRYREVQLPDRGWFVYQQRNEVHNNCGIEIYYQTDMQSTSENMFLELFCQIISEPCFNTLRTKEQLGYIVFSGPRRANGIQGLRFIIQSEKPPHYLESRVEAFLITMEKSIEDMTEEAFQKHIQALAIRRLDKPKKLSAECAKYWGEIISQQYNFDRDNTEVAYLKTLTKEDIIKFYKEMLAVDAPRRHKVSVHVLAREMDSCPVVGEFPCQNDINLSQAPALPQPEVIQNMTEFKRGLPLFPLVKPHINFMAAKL
Protocol: as §1

Human Cathepsin B = biological target: T4, Human Cathepsin B (Homo sapiens, UniProt P07858); assay: Cathepsin B inhibition assay, Casein FITC; details: substrate Casein FITC; pH 6.5; molarity calculated on assumed molecular weight of 526 daltons; read-out: IC50 (Nanomolar)
T4 construct: purchased
Protocol: as §1

papain = biological target: T5, papain (Carica papaya, UniProt P00784); assay: Protease Fluorescent Detection Kit, inhibition of papain activity; details: FITC-labeled casein substrate; 10 μg papain in 50 μL; various concentrations of inhibitor
T5 sequence (P00784 134-345): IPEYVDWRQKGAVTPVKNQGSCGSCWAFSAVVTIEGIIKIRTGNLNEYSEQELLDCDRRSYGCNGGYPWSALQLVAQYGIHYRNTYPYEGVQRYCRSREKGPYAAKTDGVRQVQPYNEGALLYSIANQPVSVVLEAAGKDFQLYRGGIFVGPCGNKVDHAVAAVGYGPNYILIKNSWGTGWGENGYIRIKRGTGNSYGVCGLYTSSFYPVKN
Protocol: The Protease Fluorescent Detection Kit of Sigma Aldrich was used for measurement of protease activity using fluorometry. In exemplary embodiments, the method is based on the proteolytic hydrolysis of a proprietary formulation of a FITC-labeled casein substrate. The reaction mixture contained in a final volume of 50 μL, 10 μg papain and various concentrations of the candidate inhibitor.

Calpain = Calpain inhibition assay, Casein FITC; details: substrate Casein FITC; 0.3M potassium chloride, 0.1 mM EDTA, 3 mM DTT pH 6.5, 2 mM CaCl2
Protocol: as §1

Human Cathepsin S = biological target: T6, Human Cathepsin S (Homo sapiens, UniProt P25774); assay: Cathepsin S fluorometric inhibition assay; details: substrate ES002; pH 4.5; molarity calculated on assumed molecular weight of 526 daltons; read-out: IC50 (Nanomolar)
T6 construct: purchased
Protocol: as §1

Trypsin = Trypsin inhibition assay, Casein FITC; details: substrate Casein FITC; 0.3M potassium chloride, 0.1 mM EDTA, 3 mM DTT pH 6.5
Protocol: as §1
The specificity of the reaction was tested by treatment of trypsin, a serine protease with the above mentioned compounds and no inhibitory activity was found (as shown in FIG. 2).

T1 sequence (P07339 65-412): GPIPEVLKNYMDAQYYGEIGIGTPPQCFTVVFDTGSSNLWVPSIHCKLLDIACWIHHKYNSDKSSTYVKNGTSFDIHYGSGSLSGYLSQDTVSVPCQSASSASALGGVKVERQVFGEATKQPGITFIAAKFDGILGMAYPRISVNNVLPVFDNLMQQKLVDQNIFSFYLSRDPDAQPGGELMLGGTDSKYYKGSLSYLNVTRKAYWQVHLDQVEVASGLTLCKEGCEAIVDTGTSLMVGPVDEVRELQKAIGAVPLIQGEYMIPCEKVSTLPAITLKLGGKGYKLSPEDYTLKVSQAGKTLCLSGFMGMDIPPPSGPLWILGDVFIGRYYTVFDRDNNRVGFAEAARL
T2 sequence (P07711 114-333): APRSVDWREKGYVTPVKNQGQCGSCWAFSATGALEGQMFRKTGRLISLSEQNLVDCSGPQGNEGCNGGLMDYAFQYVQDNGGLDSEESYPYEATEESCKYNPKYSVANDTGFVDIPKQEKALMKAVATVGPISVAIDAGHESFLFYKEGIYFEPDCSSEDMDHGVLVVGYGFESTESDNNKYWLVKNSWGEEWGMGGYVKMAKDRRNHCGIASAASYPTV
T6 sequence (P25774 115-331): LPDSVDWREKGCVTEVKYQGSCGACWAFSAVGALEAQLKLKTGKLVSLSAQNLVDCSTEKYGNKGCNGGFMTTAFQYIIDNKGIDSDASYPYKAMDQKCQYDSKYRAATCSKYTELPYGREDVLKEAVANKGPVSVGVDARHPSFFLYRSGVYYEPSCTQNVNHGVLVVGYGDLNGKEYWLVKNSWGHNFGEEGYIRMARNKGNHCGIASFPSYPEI

IC50 (Human rCathepsin D) [nM] | IC50 (Human Cathepsin L) [nM] | IC50 (Human Insulyzin (ide)) [nM] | IC50 (Human Cathepsin B) [nM] | IC50 (Microgram/ml / Nanomolar) (Calpain) | IC50 (Human Cathepsin S) [nM] | IC50 (Microgram/ml / Nanomolar) (Trypsin) | Molecule | inhibition of papain activity (FIG. 1) (papain)
0.32 | 0.056 | 0.85 | 29.4 | – | – | – | 6 hydroxybinupharidine [Nup-4 sigma] | –
– | – | – | – | – | – | – | C1=[N+](CCCCc2ccccc2)CCCC12CC1(C=[N+](CCCCCc3ccccc3)CC1)CS2 (stereo not drawn) [6-61] | demonstrated an inhibition of papain activity
0.07 | 0.266 | 0.33 | 21.8 | no inhibition | 0.08 | no inhibition | 6 6′dihydroxybinupharidine [Nup-3 sigma] | –
